Reference: the NIST ThermoML archive (doi:10.1016/j.jct.2010.12.028)

How the values were obtained:
[1] = excess molar enthalpy (molar enthalpy of mixing); xn = mol fraction of the nth substance listed; details: 308.15 K, 101 kPa, Liquid, two-drop calorimeter
[2] = xn = mol fraction of the nth substance listed; details: 101 kPa, Liquid; for speed of sound: Sing-around technique in a fixed-path interferometer; for mass density: Vibrating tube method

Cc1cccnc1 [3-methylpyridine] + Cc1ccccc1N
[1]
Details	excess molar enthalpy [kcal/mol]
x2 = 0.0503	-0.0794
x2 = 0.0843	-0.125
x2 = 0.1425	-0.194
x2 = 0.1901	-0.236
x2 = 0.2323	-0.268
x2 = 0.2837	-0.301
x2 = 0.3334	-0.321
x2 = 0.3783	-0.334
x2 = 0.4436	-0.337
x2 = 0.4926	-0.337
x2 = 0.5487	-0.323
x2 = 0.5902	-0.312
x2 = 0.6643	-0.281
x2 = 0.7182	-0.248
x2 = 0.7789	-0.209
x2 = 0.8348	-0.163
x2 = 0.8937	-0.11

[2]
Details	mass density, 298.15 K [kg/m3]	mass density, 303.15 K [kg/m3]	mass density, 308.15 K [kg/m3]	speed of sound, 298.15 K [m/s]	speed of sound, 303.15 K [m/s]	speed of sound, 308.15 K [m/s]
x2 = 0.0447	955.059	950.551	945.98	1433	1413	1393.3
x2 = 0.1132	959.404	954.953	950.452	1446.4	1426.4	1407
x2 = 0.1771	963.134	958.721	954.262	1458.6	1438.8	1419.5
x2 = 0.2069	964.775	960.381	955.934	1464.1	1444.5	1425.1
x2 = 0.2467	966.875	962.502	958.079	1471.5	1451.9	1432.5
x2 = 0.2888	968.994	964.629	960.232	1479.1	1459.8	1440.4
x2 = 0.3112	970.081	965.722	961.335	1483.1	1463.9	1444.3
x2 = 0.3624	972.469	968.119	963.751	1492.2	1473.1	1453.4
x2 = 0.4182	974.916	970.586	966.234	1502	1483	1463.2
x2 = 0.4632	976.799	972.478	968.134	1509.7	1490.6	1470.9
x2 = 0.5336	979.577	975.273	970.94	1521.7	1502.6	1482.7
x2 = 0.5778	981.226	976.931	972.616	1529.2	1509.7	1489.9
x2 = 0.6334	983.223	978.936	974.642	1538.6	1518.8	1499
x2 = 0.6967	985.375	981.112	976.836	1549.2	1528.8	1509.3
x2 = 0.7372	986.701	982.449	978.187	1556	1535.1	1515.8
x2 = 0.8156	989.151	984.927	980.689	1569.5	1547.5	1528.4
x2 = 0.8842	991.171	986.982	982.772	1581.5	1558.4	1539.5
x2 = 0.9711	993.588	989.441	985.272	1597.2	1572.8	1553.6

Cc1ccccn1 [2-methylpyridine] + Cc1ccccc1N
[1]
Details	excess molar enthalpy [kcal/mol]
x2 = 0.0496	-0.0681
x2 = 0.0772	-0.103
x2 = 0.1356	-0.173
x2 = 0.1802	-0.22
x2 = 0.2234	-0.26
x2 = 0.2736	-0.298
x2 = 0.3294	-0.327
x2 = 0.3813	-0.347
x2 = 0.4326	-0.361
x2 = 0.4882	-0.358
x2 = 0.5321	-0.351
x2 = 0.5735	-0.342
x2 = 0.6423	-0.307
x2 = 0.7152	-0.259
x2 = 0.7821	-0.207
x2 = 0.8293	-0.163
x2 = 0.8916	-0.104
x2 = 0.9676	-0.0298

[2]
Details	mass density, 298.15 K [kg/m3]	mass density, 303.15 K [kg/m3]	mass density, 308.15 K [kg/m3]	speed of sound, 298.15 K [m/s]	speed of sound, 303.15 K [m/s]	speed of sound, 308.15 K [m/s]
x2 = 0.0588	944.871	940.204	935.521	1395.6	1376.2	1355.7
x2 = 0.1226	950.051	945.414	940.771	1412	1392.5	1372.3
x2 = 0.1427	951.609	946.996	942.357	1417.3	1397.5	1377.4
x2 = 0.1759	954.117	949.518	944.908	1425.8	1405.8	1385.8
x2 = 0.2258	957.721	953.161	948.573	1438.3	1418.1	1398.3
x2 = 0.2557	959.793	955.24	950.677	1445.7	1425.4	1405.6
x2 = 0.3113	963.447	958.931	954.409	1459.5	1438.7	1418.7
x2 = 0.3629	966.623	962.158	957.666	1471.8	1450.8	1430.8
x2 = 0.4213	969.995	965.568	961.112	1485.4	1464	1443.9
x2 = 0.4743	972.843	968.45	964.025	1497.5	1475.7	1455.4
x2 = 0.5146	974.899	970.527	966.122	1506.3	1484.4	1464
x2 = 0.5732	977.707	973.382	968.998	1519.1	1496.8	1476.2
x2 = 0.6182	979.733	975.431	971.079	1528.4	1505.9	1485.5
x2 = 0.6862	982.621	978.364	974.033	1542.2	1519.4	1498.8
x2 = 0.7571	985.441	981.219	976.909	1556.3	1532.9	1508
x2 = 0.8344	988.355	984.158	979.889	1571.1	1547.4	1522.5
x2 = 0.8737	989.787	985.611	981.361	1578.5	1554.6	1538.1
x2 = 0.9527	992.636	988.492	984.295	1593.5	1569.1	1555.1
